In experiment [1] the test system is ovalbumin-sensitized mice. The experiment is described as follows: Allergen-induced accumulation of granulocytes in bronchoalveolar lavage (BAL) fluid. The class given is in vivo, BALB/c mice. From the text:
In the combined allergic rhinitis and asthma model, non-anaesthetized mice are locally sensitized with ovalbumin intranasally (i.n.), the primary route of allergen exposure in man (McCusker, et al. (2002) supra). Normal saline was used as a control. In both models sensitized mice produce ovalbumin-specific IgE and upon i.n. ovalbumin challenge, develop inflammation and eosinophilia in both the upper and lower airways as well as IL-13-dependent airway hyperresponsiveness (McCusker, et al. (2002) supra; Wang and McCusker (2005) Clin. Exp. Allergy 35(8):1104-11). Thus, in each model of allergic airway disease, the STAT-6-IP or control STAT-6-CP was given locally, i.n., to non-anaesthetized, ovalbumin-sensitized mice prior to each of five daily allergen challenges. Consistent with its ability to inhibit STAT-6-dependent activity in vitro, the STAT-6-IP inhibited allergen-induced accumulation of granulocytes in the lung, quantified in bronchoalveolar lavage (BAL) fluid, independent of the site of sensitization (Table 5).
Six-to-eight week-old male BALB/c mice were obtained from Harlan-Sprague Dawley (Indianapolis, Ind.) and were housed in a conventional animal facility. For each experimental condition, a minimum of 6-8 animals was used. Awake animals were sensitized five days per week for each of two weeks by instillation in each nostril of 5 μL 1% ovalbumin in PBS. Alternatively, animals were sensitized by two weekly systemic, i.p. injections of 0.025% ovalbumin mixed with 4 mg/mL Al(OH)3. Following two weeks rest, animals were challenged for five days by intranasal instillation of 1% ovalbumin. […] The tail vein was cannulated for drug administration and heart rate was monitored by EKG. […] Respiratory system resistance was measured. […] Methacholine was injected through the tail vein at dose of 10, 20, 40, 80, 160, 320 μg/kg and the maximal resistance and elastance were recorded. […] Six fields were counted, each encompassing 100 cells per slide, and means obtained.

Experiment [2] relates to IFN-gamma. The experiment is described as follows: Ovalbumin-induced IFN-gamma production by splenocytes from ovalbumin-sensitized mice (ELISA). The settings on record: ovalbumin 100 μg/mL + 100 μM peptide added daily, four days; ovalbumin alone 567.9 ± 93.1. The class given is cell-based, BALB/c mice. On the procedure: (§1) Splenocytes from ovalbumin-sensitized mice were cultured for four days with no antigen, with ovalbumin alone, or with ovalbumin plus the STAT-6-IP or a STAT-6 Tyr-641 mutant (STAT-6-CP; Tyr-Ala-Arg-Ala-Ala-Ala-Arg-Gln-Ala-Arg-Ala-Gly-Arg-Gly-Phe-Val-Ser-Thr-Thr; SEQ ID NO:8). The STAT-6-IP and STAT-6-CP were added to splenocyte cultures daily. Treatment with the STAT-6-IP, but not the STAT-6-CP, reduced the supernatant levels of both IL-4 and IL-13 (Table 3).
(§2) BALB/c mice were sensitized systemically by two weekly i.p. injections of 0.025% ovalbumin mixed with 4 mg/mL Al(OH)3. One week after the second sensitization, mice were sacrificed and spleens harvested. A single cell suspension of splenocytes (5×10^6 cells/mL) was cultured in RPMI-1640 medium containing 10% heat-inactivated fetal bovine serum and 2 mM L-glutamine, 50 μM 2-mercaptoethanol, 100 U/mL penicillin, and 100 μg/mL streptomycin sulfate. Splenocytes were cultured for four days in the presence or absence of 100 μg/mL ovalbumin, either alone or with 100 μM STAT-6-IP or STAT-6-CP, which were added daily. After four days, culture supernatants were harvested to quantify cytokine production by ELISA. […] Cytokine expression was monitored by flow cytometry and analyzed using CELLQUEST™ software (Becton Dickinson). […]

In experiment [3] the test system is ovalbumin-sensitized mice. The experiment is described as follows: Histology of lungs. The class given is in vivo, BALB/c mice. The settings on record: compared with ovalbumin-sensitized and -challenged animals. The protocol:
Histology was performed according to established methods (McCusker, et al. (2002) supra). Briefly, lungs were slowly inflated with 1 mL of formalin, isolated, and placed entirely in formalin. The specimens were embedded in paraffin and […] sections prepared. Slides were stained with Giemsa and examined under standard light microscopy.

For experiment [4], the system named is IL-13. The experiment is described as follows: Ovalbumin-induced IL-13 production by splenocytes from ovalbumin-sensitized mice (ELISA). The class given is cell-based, BALB/c mice. The settings on record: ovalbumin 100 μg/mL + 100 μM peptide added daily, four days; ovalbumin alone 2585.4 ± 165.7. The protocol: as §1, §2
Background: In an ELISA, binding on a coated surface is turned into a signal by an enzyme label.

Where no end group is shown, it is not given here.

As for “YARAAARQARAGRGFVSTT [STAT-6-CP, STAT-6 Tyr-641 mutant, control peptide]”, the “Granulocytes/100 counted from BAL (±SEM)” value in experiment [1] (dose response, 150 μg peptide, ovalbumin control 22.33, normal saline 5.00) was 21.42 ± 1.56 Granulocytes/100 counted; in experiment [1] (i.n. ovalbumin sensitization, 50 microgram peptide i.n. prior to each ovalbumin challenge, ovalbumin control 26.73), 22.27 (±0.60) Granulocytes/100 counted; in experiment [1] (i.p. ovalbumin sensitization, 50 microgram peptide i.n. prior to each ovalbumin challenge, ovalbumin control 37.57), 34.75 (±0.68) Granulocytes/100 counted. In addition, the “IFN-gamma (pg/mL ± SEM), culture supernatant” value in experiment [2] came to 513.6 ± 118.3 pg/mL. Besides, in experiment [3], the “Ovalbumin-induced lung inflammation, including airway eosinophilia (histology)” value was “did not differ”. In addition, the “IL-13 (pg/mL ± SEM), culture supernatant” value in experiment [4] is on record as 2136.2 ± 94.7 pg/mL.

Source of the values: patent publication US7829528B2, “Compositions and methods for treating STAT-6 associated diseases or conditions” (The Rockefeller University, priority 2004, dated 2010).
